Results reported in patent US10196363B2, “Dihydropyrimidin-2-one compounds and medical use thereof” (JAPAN TOBACCO INC., priority 2014, dated 2019).
Read-outs that look alike come from different tables or passages of the source.

Tests used:
mouse RORγ = molecular target: T1, mouse RORγ (Mus musculus, UniProt P51450); assay: In vitro assay of inhibitory effect against RORγ transcriptional activity (GAL4-mRORγ LBD luciferase reporter gene assay in CHO cells); assay type: cell-based
T1 construct: mouse RORγ, from Ile251 to Lys516; expressed in transfected cells; host or cells: CHO cells (Chinese hamster ovary), transient co-transfection with pG5-Luc
T1 sequence (P51450 251-516): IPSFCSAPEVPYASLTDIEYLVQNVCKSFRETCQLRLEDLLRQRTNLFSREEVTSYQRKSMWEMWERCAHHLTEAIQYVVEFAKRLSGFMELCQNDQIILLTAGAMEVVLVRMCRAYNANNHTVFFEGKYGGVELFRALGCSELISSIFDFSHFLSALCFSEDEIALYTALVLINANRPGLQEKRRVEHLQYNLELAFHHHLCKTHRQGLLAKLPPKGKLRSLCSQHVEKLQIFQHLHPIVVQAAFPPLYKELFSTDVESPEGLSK
Description: (§1) In Vitro Assay of Inhibitory Effect Against RORγ Transcriptional Activity
(§2) Inhibitory effect of a test article on transcriptional activity of RORγ was measured by means of the following reporter gene assay.
(§3) cDNA encoding human and mouse RORγ ligand binding domain (LBD) were obtained based on the sequences of human RORγ (Genebank registered number NM_005060.3) and mouse RORγ (Genebank registered number NM_011281.2) (LBD sequence: human RORγ, from Ser253 to Lys518; mouse RORγ, from Ile251 to Lys516).
(§4) The LBD cDNA of human or mouse RORγ was inserted into pFA-CMV vector (Strategene), which expresses GAL4-DNA binding domain fusion protein. The resulting plasmids are hereinafter referred to as GAL4-hRORγ plasmid and GAL4-mRORγ plasmid, respectively.
(§5) GAL4-hRORγ plasmid or GAL4-mRORγ plasmid was transiently co-transfected into Chinese hamster ovary cells (CHO cells) with pG5-Luc (Promega), a reporter plasmid expressing firefly luciferase depending on GAL4.
(§6) TransIT (Registered trademark) CHO transfection reagent (Mirus) was used to co-transfect GAL4-hRORγ plasmid or GAL4-mRORγ plasmid into CHO cells with pG5-Luc plasmid. One day before the assay, CHO cells were suspended in HAM F-12 Nutrient medium containing 10 v/v % fetal bovine serum and seeded at 6×10^6 cells per 175 cm^2 cell culture flask. Fifty four micro litters of TransIT (Registered trademark) CHO reagent was added into a 15 ml tube containing 1.16 mL of HAM F-12 Nutrient medium without fetal bovine serum, and mixed and incubated at room temperature for 10 min. Thirty six micro litters of plasmid solution containing the GAL4-hRORγ plasmid (400 ng), pG5-Luc plasmid (9000 ng) and pcDNA3 plasmid (8600 ng) were added into the tube and mixed gently. In case of mouse assay, a plasmid solution containing the GAL4-mRORγ plasmid (250 ng), pG5-Luc plasmid (9000 ng) and pcDNA3 plasmid (8750 ng) was added, instead. The mixture was incubated at room temperature for 10 min. Nine micro litters of CHO Mojo Reagent were then added into each tube and mixed gently. The mixture was incubated at room temperature for 10 min. The resultant transfection reagent was applied to the cell culture. After incubation at 37° C., 5% CO2 for 4 hours, the plasmid-transfected CHO cells were harvested with a trypsin treatment. The collected cells were resuspended in HAM F-12 Nutrient medium supplemented with 10 v/v % fetal bovine serum and plated into a 384-well-white plate at 8,000 cells/50 μL/well. The plate was incubated at room temperature for 1 hour and then further incubated at 37° C., 5% CO2 for 3 hours. The test articles were dissolved in dimethylsulfoxide (DMSO) to obtain a concentration of 10 mM. The resulting solution was diluted with a medium just before use and added to the cells in the plate to prepare 8 different concentrations of the test article. The final concentration of DMSO was 0.2 v/v %. After the addition of the test articles, the cells were incubated at 37° C., 5% CO2 for 2 days.
(§7) RORγ transcriptional activity was detected as the intracellular luciferase activity using SteadyLite HTS Reporter Gene Assay System (Perkin Elmer). StedyLite Reagent was diluted five-fold into a solution containing Extension reagent (10 mM Tricine, 0.2% w/v BSA, 0.02% v/v Tween-20) to obtain the luciferase substrate solution. After the measurement of the cell viability using Resazurin, the culture media in the plate were removed, and then the luciferase substrate solution was added into each well. After the incubation at room temperature for 10 minutes, luminescence of each well was measured by a microplate reader. The luciferase activity derived from the luminescence count in the vehicle-control well treated with 0.2% DMSO alone was defined as 100%, and the luciferase activity in the test article was calculated as a percentage (%-of-control) based on the value of the vehicle-control. EC50 value of test article was calculated by curve fitting with GraphPad Prism. […]

human RORγ = molecular target: T2, human RORγ (Homo sapiens, UniProt P51449); assay: In vitro assay of inhibitory effect against RORγ transcriptional activity (GAL4-hRORγ LBD luciferase reporter gene assay in CHO cells); assay type: cell-based
T2 construct: human RORγ, from Ser253 to Lys518; expressed in transfected cells; host or cells: CHO cells (Chinese hamster ovary), transient co-transfection with pG5-Luc
T2 sequence (P51449 253-518): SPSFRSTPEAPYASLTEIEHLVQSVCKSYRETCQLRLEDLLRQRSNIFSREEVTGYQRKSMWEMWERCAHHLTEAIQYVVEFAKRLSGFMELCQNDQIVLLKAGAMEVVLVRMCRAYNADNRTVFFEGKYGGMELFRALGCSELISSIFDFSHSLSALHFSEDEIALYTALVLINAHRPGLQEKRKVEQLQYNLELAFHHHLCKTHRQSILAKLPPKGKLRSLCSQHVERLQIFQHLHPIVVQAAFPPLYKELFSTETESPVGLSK
Description: as §1, §2, §3, §4, §5, §6, §7

[1] = GAL4-mRORγ LBD / pG5-Luc in CHO cells, 2 days incubation
[2] = GAL4-hRORγ LBD / pG5-Luc in CHO cells, 2 days incubation
[3] = GAL4-mRORγ LBD luciferase reporter, CHO cells, read-out: LUC EC50 mRORγ
[4] = value in parentheses beside the EC50 bound, vehicle-control 0.2% DMSO alone = 100%
[5] = GAL4-hRORγ LBD luciferase reporter, CHO cells, read-out: LUC EC50 hRORγ

| SMILES | EC50 (mouse RORγ; [3]) [nM] | EC50 (human RORγ; [5]) [nM] | other results |
| --- | --- | --- | --- |
| CC(C)N1C=C(C(C)(C)CCC(=O)O)C(C)(c2ccc(CCC(C)(C)C)c(Cl)c2)NC1=O (single isomer, unassigned) [Example 172] | – | – | EC50 (mouse RORγ; [1]): 18 nM; EC50 (human RORγ; [2]): 13 nM |
| CC(C)C1=CN(CCC(=O)O)C(=O)N[C@@]1(C)c1ccc(C2CC2C(C)C)c(Cl)c1 (single isomer, unassigned) [Example 174] | – | – | EC50 (mouse RORγ; [1]): 11 nM; EC50 (human RORγ; [2]): 14 nM |
| CC(C)(C)CCc1ccc(C2(C)NC(=O)N([C@H]3C[C@H](C(=O)O)C3)C=C2C(C)(C)CCCO)cc1Cl (single isomer, unassigned) [Example 180] | – | – | EC50 (mouse RORγ; [1]): 50 nM; EC50 (human RORγ; [2]): 32 nM |
| COC(=O)[C@H]1C[C@H](N2C=C(C(C)(C)CCC(=O)O)C(C)(c3ccc(CCC(C)(C)C)c(Cl)c3)NC2=O)C1 (single isomer, unassigned) [Example 181] | – | – | EC50 (mouse RORγ; [1]): 32 nM; EC50 (human RORγ; [2]): 18 nM |
| CC(C)(C)CCc1ccc(C2(C)NC(=O)N([C@H]3C[C@H](CO)C3)C=C2C(C)(C)CCC(=O)O)cc1Cl (single isomer, unassigned) [Example 182] | – | – | EC50 (mouse RORγ; [1]): 76 nM; EC50 (human RORγ; [2]): 27 nM |
| CC(C)(C)CCc1ccc(C2(C)NC(=O)N(C3CCC3)C=C2C(C)(C)CCC(=O)O)cc1Cl (single isomer, unassigned) [Example 184] | – | – | EC50 (mouse RORγ; [1]): 22 nM; EC50 (human RORγ; [2]): 11 nM |
| CC(C)C1=CN(C23C4C5C2C2C3C4C52C(=O)O)C(=O)N[C@@]1(C)c1ccc(CCC(C)(C)C)c(Cl)c1 (single isomer, unassigned) [Example 222] | 40 | 20 | – |
| CC(C)C1=CN(C2CC3(CC(C(=O)O)C3)C2)C(=O)N[C@@]1(C)c1ccc(CCC(C)(C)C)c(Cl)c1 (single isomer, unassigned) [Example 232] | 19 | 15 | – |
| CC(C)C1=CN(C2CC3(CC(C(=O)O)C3)C2)C(=O)N[C@@]1(C)c1ccc(CCC(C)(C)C)c(Cl)c1 (single isomer, unassigned) [Example 233] | 72 | 69 | – |
| CC(C)C1=CN(C2CN(C(=O)OC(C)(C)C)CC2C(=O)O)C(=O)N[C@@]1(C)c1ccc(CCC(C)(C)C)c(Cl)c1 (single isomer, unassigned) [Example 237] | 673 | 719 | – |
| CC(C)C1=CN(C2CNCC2C(=O)O)C(=O)N[C@@]1(C)c1ccc(CCC(C)(C)C)c(Cl)c1 (single isomer, unassigned) [Example 238] | 666 | 715 | – |
| CC(=O)N1CC(C(=O)O)C(N2C=C(C(C)C)[C@](C)(c3ccc(CCC(C)(C)C)c(Cl)c3)NC2=O)C1 (single isomer, unassigned) [Example 239] | 3060 | 4560 | – |
| CC(C)C1=CN(C2CN(S(C)(=O)=O)CC2C(=O)O)C(=O)N[C@@]1(C)c1ccc(CCC(C)(C)C)c(Cl)c1 (single isomer, unassigned) [Example 240] | 147 | 108 | – |
| CC(C)C1=CN(C2CCCC2C(=O)O)C(=O)N[C@@]1(C)c1ccc(CCC(C)(C)C)c(Cl)c1 (single isomer, unassigned) [Example 242] | 58 | 78 | – |
| CC(C)C1=CN(C2CCCC2C(=O)O)C(=O)N[C@@]1(C)c1ccc(CCC(C)(C)C)c(Cl)c1 (single isomer, unassigned) [Example 243] | 543 | 1220 | – |
| CCOC(=O)C1CNCC1N1C=C(C(C)C)[C@](C)(c2ccc(CCC(C)(C)C)c(Cl)c2)NC1=O (single isomer, unassigned) [Example 244] | 269 | 176 | – |
| CCOC(=O)C1CNCC1N1C=C(C(C)C)[C@](C)(c2ccc(CCC(C)(C)C)c(Cl)c2)NC1=O (single isomer, unassigned) [Example 245] | 301 | 261 | – |
| COC1CC(C2=CN(c3ccc(C(=O)O)cc3)C(=O)N[C@@]2(C)c2ccc(CCC(C)(C)C)c(Cl)c2)C1 (single isomer, unassigned) [Example 276] | 47 | 28 | – |
| COC1CC(C2=CN(c3ccc(C(=O)O)cc3)C(=O)N[C@@]2(C)c2ccc(CCC(C)(C)C)c(Cl)c2)C1 (single isomer, unassigned) [Example 277] | 38 | 23 | – |
| CC(C)C1=CN(C2CCC(C(=O)O)C2)C(=O)N[C@@]1(C)c1ccc(CCC(C)(C)C)c(Cl)c1 (single isomer, unassigned) [Example 278] | 13 | 13 | – |
| CC(C)C1=CN(C2CCC(C(=O)O)C2)C(=O)N[C@@]1(C)c1ccc(CCC(C)(C)C)c(Cl)c1 (single isomer, unassigned) [Example 279] | 22 | 16 | – |
| CC(C)C1=CN(C2CCC(C(=O)O)C2)C(=O)N[C@@]1(C)c1ccc(CCC(C)(C)C)c(Cl)c1 (single isomer, unassigned) [Example 280] | 42 | 26 | – |

Now from value to compound, other results behind:

| EC50 (mouse RORγ; [3]) [nM] | EC50 (human RORγ; [5]) [nM] | SMILES | other results |
| --- | --- | --- | --- |
| > 8000 | > 8000 | COC(=O)[C@H]1C[C@H](N2C=C(C(C)(C)CCCO)[C@@](C)(c3ccc(CCC(C)(C)C)c(Cl)c3)NC2=O)C1 (single isomer, unassigned) [Example 190] | mRORγ luciferase activity, %-of-control (mouse RORγ; [4]): (66%); hRORγ luciferase activity, %-of-control (human RORγ; [4]): (74%) |
| 71 | 45 | COC(=O)[C@H]1C[C@H](N2C=C(C(C)(C)CCCO)[C@](C)(c3ccc(CCC(C)(C)C)c(Cl)c3)NC2=O)C1 (single isomer, unassigned) [Example 191] | – |
| 28 | 28 | CC(C)C1=CN(C2CCCC(C(=O)O)C2)C(=O)N[C@@]1(C)c1ccc(CCC(C)(C)C)c(Cl)c1 (single isomer, unassigned) [Example 254] | – |
| 296 | 273 | CC(C)C1=CN(C2CCCC(C(=O)O)C2)C(=O)N[C@@]1(C)c1ccc(CCC(C)(C)C)c(Cl)c1 (single isomer, unassigned) [Example 255] | – |
| 26 | 22 | CC(C)C1=CN(C2CCCC(C(=O)O)C2)C(=O)N[C@@]1(C)c1ccc(CCC(C)(C)C)c(Cl)c1 (single isomer, unassigned) [Example 256] | – |
| 115 | 165 | CC(C)C1=CN(C2CCCC(C(=O)O)C2)C(=O)N[C@@]1(C)c1ccc(CCC(C)(C)C)c(Cl)c1 (single isomer, unassigned) [Example 257] | – |
